Test results from patent US20170226142A1 (Achillion Pharmaceuticals, Inc., priority 2014, published 2017).
Read-outs that look alike come from different tables or passages of the source.

Molecular target: T1, Human factor D (Homo sapiens, UniProt P00746)
T1 construct: purified from human serum; purchased Complement Technology, Inc; host or cells: human serum
Test: Human Factor D Assay (Factor D inhibition assay)
Type: biochemical
Experimental: Routine changes in starting materials and reaction conditions, readily apparent to those of skill in the art, were used to make the particular compounds disclosed in Table 2.
Human factor D (purified from human serum, Complement Technology, Inc.) at 80 nM final concentration is incubated with test compound at various concentrations for 5 minutes at room temperature in 50 mM Tris, 1M NaCl, pH 7.5. A synthetic substrate Z-L-Lys-SBzl and DTNB (Ellman's reagent) are added to final concentrations of 100 µM each. The increase in color is recorded at OD405 nm in a microplate in kinetic mode over 30 minutes with 30 second time points in a […]. IC50 values are calculated by non-linear regression from the percentage of inhibition of complement factor D activity as a function of test compound concentration.

[1] = Factor D 80 nM, substrate Z-L-Lys-SBzl, DTNB, pH 7.5, read-out: IC50

T1 sequence (P00746 26-253): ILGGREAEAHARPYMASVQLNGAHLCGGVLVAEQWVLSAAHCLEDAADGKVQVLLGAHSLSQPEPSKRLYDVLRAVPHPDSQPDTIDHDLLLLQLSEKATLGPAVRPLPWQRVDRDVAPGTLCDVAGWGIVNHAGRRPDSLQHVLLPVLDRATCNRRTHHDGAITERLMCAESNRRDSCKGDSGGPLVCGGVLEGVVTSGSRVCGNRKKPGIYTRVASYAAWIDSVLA

Row | IC50 [1] [nM] | SMILES | further results
1 | < 1000 | CC(=O)c1nn(CC(=O)N2C[C@H](F)C[C@H]2C(=O)Nc2cccc(SC(F)(F)F)c2)c2cnccc12 [Compound 53, (2S,4R)-1-(2-(3-acetyl-1H-pyrazolo[3,4-c]pyridin-1-yl)acetyl)-4-fluoro-N-(3-((trifluoro-methyl)thio)phenyl)pyrrolidine-2-carboxamide] | –
2 | > 10000 | O=C(NCc1cccc(Cl)c1F)[C@@H]1C[C@@H](F)CN1C(=O)Cn1nc(P(=O)(O)O)c2ccncc21 [Compound 65] | –
3 | – | CCOP(=O)(OCC)c1ccc2c(C(C)=O)cn(CC(=O)N3[C@@H]4CCC[C@@H]4C[C@H]3C(=O)NCc3cccc(Cl)c3F)c2c1 [Compound 76, diethyl 1-(2-((2S,3aR,6aR)-2-((3-chloro-2-fluorobenzyl)carbamoyl)-hexahydrocyclopenta[b]pyrrol-1(2H)-yl)-2-oxoethyl)-3-acetyl-1H-indol-6-ylphosphonate] | IC50 (read-out: IC50): < 1000 nM
4 | 1000 to 10000 | C=CC1C[C@]1(NC(=O)[C@@H]1C[C@@H](F)CN1C(=O)Cn1cc(C(C)=O)c2ccc(O)cc21)C(=O)NS(=O)(=O)C1CC1 (stereo partly drawn) [Compound 88, (2S,4R)-1-(2-(3-acetyl-6-hydroxy-1H-indol-1-yl)acetyl)-N-((1R)-1-(cyclopropylsulfonylcarbamoyl)-2-vinylcyclopropyl)-4-fluoropyrrolidine-2-carboxamide] | –
5 | < 1000 | CC(=O)c1cn(CC(=O)N2CCOC[C@H]2C(=O)NCc2cccc(Cl)c2F)c2cc(C(=O)O)ccc12 [Compound 159, (S)-1-(2-(3-((3-chloro-2-fluorobenzyl)carbamoyl)morpholino)-2-oxoethyl)-3-acetyl-1H-indole-6-carboxylic acid] | –
6 | – | NC(=O)c1nn(CC(=O)N2C[C@H](F)C[C@H]2C(=O)Nc2cccc(-c3ccccc3Cl)c2F)c2cc(C(=O)NS(=O)(=O)C3CC3)ccc12 [Compound 212] | IC50 (pH 7.5, read-out: IC50): < 1000 nM
7 | – | CC(=O)c1cn(CC(=O)N2C[C@H](F)C[C@H]2C(=O)Nc2cccc(Oc3ccccc3)c2)c2cc(OCP(=O)(O)O)ccc12 [Compound 232, (((3-acetyl-1-(2-((2S,4R)-4-fluoro-2-((3-phenoxyphenyl)carbamoyl)pyrrolidin-1-yl)-2-oxoethyl)-1H-indol-6-yl)oxy)methyl)phosphonic acid] | IC50: 1000 to 10000 nM

Row | SMILES | IC50 [1] [nM] | further results
8 | CC(=O)c1cn(CC(=O)N2C[C@H](F)C[C@H]2C(=O)NCc2cccc(Cl)c2F)c2ccc(C#Cc3cccc(OC(F)(F)F)c3F)cc12 [Compound 177, (2S,4R)-1-(2-(3-acetyl-5-((2-fluoro-3-(trifluoromethoxy)phenyl)ethynyl)-1H-indol-1-yl)acetyl)-N-(3-chloro-2-fluorobenzyl)-4-fluoropyrrolidine-2-carboxamide] | 1000 to 10000 | –
9 | CC(=O)c1cn(CC(=O)N2C[C@H](F)C[C@H]2C(=O)NCc2cccc(Cl)c2F)c2ccc(NC(=O)OC3CC3)cc12 [Compound 186, cyclopropyl (3-acetyl-1-(2-((2S,4R)-2-((3-chloro-2-fluorobenzyl)carbamoyl)-4-fluoropyrrolidin-1-yl)-2-oxoethyl)-1H-indol-5-yl)carbamate] | < 1000 | –
